Measured values as given in ChEMBL document CHEMBL4808200, “Identification of a Series of N-Methylpyridine-2-carboxamides as Potent and Selective Inhibitors of the Second Bromodomain (BD2) of the Bromo and Extra Terminal Domain (BET) Proteins” (J Med Chem, 2021).
Converted amounts (≈) assume the structure as drawn.

Columns and labels:
physchem = details: buffer, pH 7.4
[1] = Permeability of the compound at pH 7.4 by artificial membrane permeability assay; assay type: ADME; details: PAMPA, read-out: permeability
[2] = Solubility of the compound in pH 6.5 FaSSIF at […] measured after 16 hrs by HPLC analysis; assay type: physicochemical
[3] = Intrinsic clearance in Wistar Han rat cryopreserved pooled hepatocytes at 0.5 uM measured up to 60 mins by LC-MS/MS analysis; assay type: ADME, tissue-based, Hepatocyte; details: 1 h
[4] = Intrinsic clearance in Beagle dog cryopreserved pooled hepatocytes at 0.5 uM measured up to 120 mins by LC-MS/MS analysis; assay type: ADME, tissue-based, Canis lupus familiaris, Hepatocyte; details: 2 h
[5] = Intrinsic clearance in human cryopreserved pooled hepatocytes at 0.5 uM measured up to 120 mins by LC-MS/MS analysis; assay type: ADME, tissue-based, Hepatocyte; details: 2 h
[6] = Volume of distribution at steady state in Wistar Han rat at 1 mg/kg, iv administered as 1 hr infusion or 3 mg/kg, po administered via gavage by LC-MS/MS analysis; assay type: ADME, organism-based; details: in vivo, read-out: Vdss
[7] = Oral bioavailability in Wistar Han rat at 3 mg/kg administered via gavage by LC-MS/MS analysis; assay type: ADME, organism-based; details: in vivo
[8] = Half life in Wistar Han rat at 1 mg/kg, iv administered as 1 hr infusion or 3 mg/kg, po administered via gavage by LC-MS/MS analysis; assay type: ADME, organism-based; details: in vivo
[9] = Clearance in Wistar Han rat at 1 mg/kg, iv administered as 1 hr infusion or 3 mg/kg, po administered via gavage by LC-MS/MS analysis; assay type: ADME, organism-based; details: in vivo
[10] = Unbound clearance in Wistar Han rat at 1 mg/kg, iv administered as 1 hr infusion or 3 mg/kg, po administered via gavage by LC-MS/MS analysis; assay type: ADME, organism-based; details: in vivo
[11] = Volume of distribution at steady state in Beagle dog at 0.5 mg/kg, iv administered as 1 hr infusion on day 1 and day 7 to achieve a target dose of 1 mg/kg by LC-MS/MS analysis; assay type: ADME, organism-based, Canis lupus familiaris; details: in vivo, dose 0.5-1 mg/kg, time 7 day, read-out: Vdss
[12] = Clearance in Beagle dog at 0.5 mg/kg, iv administered as 1 hr infusion on day 1 and day 7 to achieve a target dose of 1 mg/kg by LC-MS/MS analysis; assay type: ADME, organism-based, Canis lupus familiaris; details: in vivo, dose 0.5-1 mg/kg, time 7 day
[13] = Unbound clearance in Beagle dog at 0.5 mg/kg, iv administered as 1 hr infusion on day 1 and day 7 to achieve a target dose of 1 mg/kg by LC-MS/MS analysis; assay type: ADME, organism-based, Canis lupus familiaris; details: in vivo, 168 h, dose 0.5-1 mg/kg, time 7 day
[14] = Half life in Beagle dog at 0.5 mg/kg, iv administered as 1 hr infusion on day 1 and day 7 to achieve a target dose of 1 mg/kg by LC-MS/MS analysis; assay type: ADME, organism-based, Canis lupus familiaris; details: in vivo, dose 0.5-1 mg/kg, time 7 day
[15] = Oral bioavailability in Beagle dog; assay type: ADME, organism-based, Canis lupus familiaris; details: in vivo

Row | SMILES | chromatographic logD (physchem) | Papp [1] [×10⁻⁶ cm/s] | solubility at 16 h [2] [µg/mL] | further results
1 | CNC(=O)c1cc(C(=O)NC2CC2)cn([C@H](C)c2ccccc2)c1=O | 3.5 | – | – | –
2 | CNC(=O)c1cc(C(=O)NC2CC2)cn(Cc2cccc3[nH]ccc23)c1=O | – | 17.8 | 20 (≈ 54.9 µM) | –
3 | CC(=O)Nc1ccc(C(=O)NCCc2cnc[nH]2)cc1OCc1ccccc1 | 2.2 | – | – | –
4 | CNC(=O)c1cc(C(=O)N[C@H]2C[C@@H]2C)cc([C@@H](CC#N)c2ccccc2)n1 | 4 | 35.3 | – | –
5 | CNC(=O)c1cc(C(=O)NC2CC2)cc(Cc2cccc3c2CCN3)n1.Cl | 3 | 19 | 953 | CLH [3]: 0.88 mL/min/g; CLH [4]: < 0.65 mL/min/g; CLH [5]: < 0.45 mL/min/g; Vd [6]: 4.1 L/kg; bioavailability [7]: 98%; half-life [8]: 114 min; clearance [9]: 33 mL/min/kg; CL free [10]: 73 mL/min/kg
6 | CNC(=O)c1cc(C(=O)N[C@H]2C[C@@H]2C)cc(Cc2ccccc2)n1 | 4.6 | 63 | 94 (≈ 291 µM) | –
7 | CNC(=O)c1cc(C(=O)N[C@H]2C[C@@H]2C)cc(C(OC)c2ccccc2)n1 (some centres undefined) | 4.3 | 56 | – | –
8 | CNC(=O)c1cc(C(=O)N[C@H]2[C@@H]3C[C@H](O)C[C@@H]32)cc(Cc2ccccc2)n1 | 3.5 | 15 | 43 (≈ 118 µM) | –
9 | CNC(=O)c1cc(C(=O)N[C@H]2CC[C@H](O)CC2)cc(Cc2ccccc2)n1 | 3.1 | 8.6 | 473 (≈ 1290 µM) | –
10 | CNC(=O)c1cc(C(N)=O)cc(Cc2ccccc2)n1 | 2.7 | 21 | – | –
11 | CNC(=O)c1cc(C(=O)NC(C)C)cc(Cc2ccccc2)n1 | – | 57 | 101 (≈ 324 µM) | –
12 | CNC(=O)c1cc(C(=O)N[C@H]2[C@@H]3C[C@@H](O)C[C@@H]32)cc(C(OC)c2ccccc2)n1 (some centres undefined) | 2.9 | 5.6 | – | CLH [3]: < 0.8 mL/min/g; CLH [4]: < 0.65 mL/min/g; CLH [5]: < 0.45 mL/min/g; Vd [6]: 1.8 L/kg; bioavailability [7]: 77%; half-life [8]: 42 min; clearance [9]: 57 mL/min/kg; CL free [10]: 95 mL/min/kg
13 | CNC(=O)c1cc(C(=O)N[C@H]2[C@@H]3C[C@@H](O)C[C@@H]32)cc([C@@H](C)c2ccccc2)n1 | 3.6 | 13 | 744 (≈ 1960 µM) | –
14 | CNC(=O)c1cc(C(=O)O)cc(Cc2ccccc2)n1 | – | – | > 1000 | –
15 | CNC(=O)c1cc(C(=O)NC2CC2)cn([C@@H](C)c2ccccc2)c1=O | 3.3 | – | 598 (≈ 1760 µM) | –
16 | CNC(=O)c1cc(C(=O)NC2CC2)cc([C@@H](C)c2ccccc2)n1 | 4.4 | 55.5 | 123 (≈ 380 µM) | –
17 | CNC(=O)c1cc(C(=O)NC2CCOCC2)cc(Cc2ccccc2)n1 | 3.7 | 22 | 173 (≈ 489 µM) | –
18 | CNC(=O)c1cc(C(=O)NC2CC2)cc(Cc2cccc3[nH]ccc23)n1 | 3.5 | 30.5 | – | –

Row | SMILES | chromatographic logD (physchem) | Papp [1] [×10⁻⁶ cm/s] | solubility at 16 h [2] [µg/mL] | further results
19 | CNC(=O)c1cc(C(=O)N[C@H]2[C@@H]3COC[C@@H]32)cc(C(O)c2ccccc2)n1 (some centres undefined) | 2.2 | 2.4 | 473 (≈ 1290 µM) | –
20 | CNC(=O)c1cc(C(=O)NCCC[C@H]2OC[C@H](N)CO2)cc(Cc2ccccc2)n1 | 2.8 | 15 | – | CLH [3]: 1.04 mL/min/g; CLH [4]: < 0.65 mL/min/g; Vd [11]: 2.4 L/kg; CLH [5]: < 0.45 mL/min/g; Vd [6]: 0.7 L/kg; clearance [12]: 42 mL/min/kg; bioavailability [7]: 28%; CL free [13]: 118 mL/min/kg; half-life [8]: 24 min; clearance [9]: 31 mL/min/kg; half-life [14]: 54 min; bioavailability [15]: 98%; CL free [10]: 365 mL/min/kg
21 | CNC(=O)c1cc(C(=O)N[C@H]2[C@@H]3C[C@H](O)C[C@@H]32)cc([C@@H](C)c2ccccc2)n1 | 4.1 | 28 | 572 (≈ 1510 µM) | –
22 | CNC(=O)c1cc(C(=O)NC2CC2)cc([C@H](C)c2ccccc2)n1 | 4.3 | 49 | 182 (≈ 563 µM) | –
23 | CNC(=O)c1cc(C(=O)N[C@H]2[C@@H]3COC[C@@H]32)cc(C(CC#N)c2ccccc2)n1 (some centres undefined) | 3.1 | 20 | 930 (≈ 2380 µM) | CLH [3]: 1.87 mL/min/g; CLH [4]: < 0.65 mL/min/g; CLH [5]: < 0.45 mL/min/g; Vd [6]: 5.9 L/kg; bioavailability [7]: 54%; half-life [8]: 264 min; clearance [9]: 70 mL/min/kg
24 | CNC(=O)c1cccc(Cc2ccccc2)n1 | 4.3 | 77 | 258 (≈ 1140 µM) | –
25 | CCNC(=O)c1cc(Cc2ccccc2)nc(C(=O)NC)c1 | 3.7 | – | 310 (≈ 1040 µM) | –
26 | CNC(=O)c1cc(C(=O)NC2CC2)cc(Cc2cccc3cn[nH]c23)n1 | 2.9 | 20 | – | –
27 | CNC(=O)c1cc(Cc2ccccc2)nc(C(=O)NC)c1 | 3.1 | 20 | > 1000 | –
28 | CNC(=O)c1cc(C(=O)NC2CC2)cc(Cc2ccccc2)n1 | 3.9 | 38.5 | 89 (≈ 288 µM) | CLH [3]: 5.3 mL/min/g; CLH [4]: < 1.3 mL/min/g; CLH [5]: < 0.87 mL/min/g; Vd [6]: 0.4 L/kg; bioavailability [7]: 29%; half-life [8]: 18 min; clearance [9]: 12 mL/min/kg; CL free [10]: 343 mL/min/kg
29 | CNC(=O)c1cc(C(=O)NC2COC2)cc(Cc2ccccc2)n1 | 3.1 | 16 | 73 (≈ 224 µM) | –
30 | CNC(=O)c1cc(C(=O)N[C@H]2[C@@H]3C[C@@H](O)C[C@@H]32)cc(Cc2ccccc2)n1 | 3.1 | 7.1 | 143 (≈ 391 µM) | –
31 | CNC(=O)c1cc(C(=O)NC2CC2)cc([C@@H](O)c2ccccc2)n1 | 2.4 | 7.15 | > 1000 | –
32 | CNC(=O)c1cc(C(=O)N[C@H]2C[C@H](O)C2)cc(Cc2ccccc2)n1 | 2.7 | 7.3 | 194 (≈ 572 µM) | –
33 | CNC(=O)c1cc(C(=O)N(C)C)cc(Cc2ccccc2)n1 | 3.3 | 33 | – | –
34 | CNC(=O)c1cc(C(=O)N[C@H]2C[C@@H]2C)cc([C@@H](CO)c2ccccc2)n1 | 3.3 | 10 | > 1000 | –
35 | CC(=O)Nc1c(F)cc(C(=O)N[C@H]2CC[C@H](O)CC2)cc1O[C@@H](C)c1ccccc1 [GSK046] | 2.8 | – | – | –
